Laboratory results reported in ChEMBL document CHEMBL3603774, “Novel 5-functionalized-pyrazoles: Synthesis, characterization and pharmacological screening” (Bioorg Med Chem Lett, 2015).
In brackets after ≈: the same amount, converted by molar mass.

test system: Bacillus cereus; assay: Antibacterial activity against Bacillus cereus MTCC 8372 at 50 ug/ml after 24 hrs by disc diffusion method; type: functional; details: MTCC 8372, 24 h, read-out: IZ

Compound | zone of inhibition at 50 µg/mL
CCOC(=O)c1c(-c2ccccc2)nn(-c2ccccc2)c1Cn1cnc2cc(C)ccc21 | 8 mm

test system: Bacillus cereus; assay: Antibacterial activity against Bacillus cereus MTCC 8372 at 100 ug/ml after 24 hrs by disc diffusion method; type: functional; details: MTCC 8372, 24 h, read-out: IZ

Compound | zone of inhibition at 100 µg/mL
CCOC(=O)c1c(-c2ccccc2)nn(-c2ccccc2)c1Cn1cnc2cc(C)ccc21 | 11 mm

test system: Staphylococcus aureus; assay: Antibacterial activity against Staphylococcus aureus MTCC 96 at 50 ug/ml after 24 hrs by disc diffusion method; type: functional; details: MTCC 96, 24 h, read-out: IZ

Compound | zone of inhibition at 50 µg/mL
CCOC(=O)c1c(-c2ccccc2)nn(-c2ccccc2)c1Cn1cnc2cc(C)ccc21 | 6 mm

test system: Staphylococcus aureus; assay: Antibacterial activity against Staphylococcus aureus MTCC 96 at 100 ug/ml after 24 hrs by disc diffusion method; type: functional; details: MTCC 96, 24 h, read-out: IZ

Compound | zone of inhibition at 100 µg/mL
CCOC(=O)c1c(-c2ccccc2)nn(-c2ccccc2)c1Cn1cnc2cc(C)ccc21 | 12 mm

test system: Escherichia coli; assay: Antibacterial activity against Escherichia coli MTCC 724 at 50 ug/ml after 24 hrs by disc diffusion method; type: functional; details: MTCC 724, 24 h, read-out: IZ

Compound | zone of inhibition at 50 µg/mL
CCOC(=O)c1c(-c2ccccc2)nn(-c2ccccc2)c1Cn1cnc2cc(C)ccc21 | 8 mm

test system: Escherichia coli; assay: Antibacterial activity against Escherichia coli MTCC 724 at 100 ug/ml after 24 hrs by disc diffusion method; type: functional; details: MTCC 724, 24 h, read-out: IZ

Compound | zone of inhibition at 100 µg/mL
CCOC(=O)c1c(-c2ccccc2)nn(-c2ccccc2)c1Cn1cnc2cc(C)ccc21 | 12 mm

test system: Klebsiella pneumoniae; assay: Antibacterial activity against Klebsiella pneumoniae MTCC 3384 at 50 ug/ml after 24 hrs by disc diffusion method; type: functional; details: MTCC 3384, 24 h, read-out: IZ

Compound | zone of inhibition at 50 µg/mL
CCOC(=O)c1c(-c2ccccc2)nn(-c2ccccc2)c1Cn1cnc2cc(C)ccc21 | 9 mm

test system: Klebsiella pneumoniae; assay: Antibacterial activity against Klebsiella pneumoniae MTCC 3384 at 100 ug/ml after 24 hrs by disc diffusion method; type: functional; details: MTCC 3384, 24 h, read-out: IZ

Compound | zone of inhibition at 100 µg/mL
CCOC(=O)c1c(-c2ccccc2)nn(-c2ccccc2)c1Cn1cnc2cc(C)ccc21 | 11 mm

test system: Aspergillus flavus; assay: Antifungal activity against Aspergillus flavus MTCC 873 at 50 ug/ml after 24 hrs by disc diffusion method; type: functional; details: MTCC 873, 24 h, read-out: IZ

Compound | zone of inhibition at 50 µg/mL
CCOC(=O)c1c(-c2ccccc2)nn(-c2ccccc2)c1Cn1cnc2cc(C)ccc21 | 16 mm

test system: Aspergillus flavus; assay: Antifungal activity against Aspergillus flavus MTCC 873 at 100 ug/ml after 24 hrs by disc diffusion method; type: functional; details: MTCC 873, 24 h, read-out: IZ

Compound | zone of inhibition at 100 µg/mL
CCOC(=O)c1c(-c2ccccc2)nn(-c2ccccc2)c1Cn1cnc2cc(C)ccc21 | 21 mm

test system: Aspergillus niger; assay: Antifungal activity against Aspergillus niger MTCC 281 at 50 ug/ml after 24 hrs by disc diffusion method; type: functional; details: MTCC 281, 24 h, read-out: IZ

Compound | zone of inhibition at 50 µg/mL
CCOC(=O)c1c(-c2ccccc2)nn(-c2ccccc2)c1Cn1cnc2cc(C)ccc21 | 12 mm

test system: Bacillus cereus; assay: Antibacterial activity against Bacillus cereus MTCC 8372 after 24 hrs by microdilution method; type: functional; details: MTCC 8372, 24 h

MIC | Compound
50 µg/mL (≈ 115 µM) | CCOC(=O)c1c(-c2ccccc2)nn(-c2ccccc2)c1Cn1cnc2cc(C)ccc21

test system: Bacillus cereus; assay: Antibacterial activity against Bacillus cereus MTCC 8372 assessed as concentration required to completely destroy test microorganisms after 24 hrs; type: functional; details: MTCC 8372, 24 h

Compound | MBC
CCOC(=O)c1c(-c2ccccc2)nn(-c2ccccc2)c1Cn1cnc2cc(C)ccc21 | 220 µg/mL (≈ 504 µM)

test system: Staphylococcus aureus; assay: Antibacterial activity against Staphylococcus aureus MTCC 96 after 24 hrs by microdilution method; type: functional; details: MTCC 96, 24 h

MIC | Compound
45 µg/mL (≈ 103 µM) | CCOC(=O)c1c(-c2ccccc2)nn(-c2ccccc2)c1Cn1cnc2cc(C)ccc21

test system: Staphylococcus aureus; assay: Antibacterial activity against Staphylococcus aureus MTCC 96 assessed as concentration required to completely destroy test microorganisms after 24 hrs; type: functional; details: MTCC 96, 24 h

Compound | MBC
CCOC(=O)c1c(-c2ccccc2)nn(-c2ccccc2)c1Cn1cnc2cc(C)ccc21 | 205 µg/mL (≈ 470 µM)

test system: Escherichia coli; assay: Antibacterial activity against Escherichia coli MTCC 724 after 24 hrs by microdilution method; type: functional; details: MTCC 724, 24 h

MIC | Compound
40 µg/mL (≈ 91.6 µM) | CCOC(=O)c1c(-c2ccccc2)nn(-c2ccccc2)c1Cn1cnc2cc(C)ccc21

test system: Escherichia coli; assay: Antibacterial activity against Escherichia coli MTCC 724 assessed as concentration required to completely destroy test microorganisms after 24 hrs; type: functional; details: MTCC 724, 24 h

Compound | MBC
CCOC(=O)c1c(-c2ccccc2)nn(-c2ccccc2)c1Cn1cnc2cc(C)ccc21 | 205 µg/mL (≈ 470 µM)

test system: Klebsiella pneumoniae; assay: Antibacterial activity against Klebsiella pneumoniae MTCC 3384 after 24 hrs by microdilution method; type: functional; details: MTCC 3384, 24 h

MIC | Compound
45 µg/mL (≈ 103 µM) | CCOC(=O)c1c(-c2ccccc2)nn(-c2ccccc2)c1Cn1cnc2cc(C)ccc21

test system: Klebsiella pneumoniae; assay: Antibacterial activity against Klebsiella pneumoniae MTCC 3384 assessed as concentration required to completely destroy test microorganisms after 24 hrs; type: functional; details: MTCC 3384, 24 h

Compound | MBC
CCOC(=O)c1c(-c2ccccc2)nn(-c2ccccc2)c1Cn1cnc2cc(C)ccc21 | 240 µg/mL (≈ 550 µM)

test system: Aspergillus flavus; assay: Antifungal activity against Aspergillus flavus MTCC 873 after 48 hrs by microdilution method; type: functional; details: MTCC 873, 48 h

MIC | Compound
40 µg/mL (≈ 91.6 µM) | CCOC(=O)c1c(-c2ccccc2)nn(-c2ccccc2)c1Cn1cnc2cc(C)ccc21

test system: Aspergillus flavus; assay: Antifungal activity against Aspergillus flavus MTCC 873 assessed as concentration required to completely destroy test microorganisms after 24 hrs; type: functional; details: MTCC 873, 24 h

Compound | MFC
CCOC(=O)c1c(-c2ccccc2)nn(-c2ccccc2)c1Cn1cnc2cc(C)ccc21 | 270 µg/mL (≈ 619 µM)

test system: Aspergillus niger; assay: Antifungal activity against Aspergillus niger MTCC 281 after 48 hrs by microdilution method; type: functional; details: MTCC 281, 48 h

MIC | Compound
45 µg/mL (≈ 103 µM) | CCOC(=O)c1c(-c2ccccc2)nn(-c2ccccc2)c1Cn1cnc2cc(C)ccc21

test system: Aspergillus niger; assay: Antifungal activity against Aspergillus niger MTCC 281 assessed as concentration required to completely destroy test microorganisms after 24 hrs; type: functional; details: MTCC 281, 24 h

Compound | MFC
CCOC(=O)c1c(-c2ccccc2)nn(-c2ccccc2)c1Cn1cnc2cc(C)ccc21 | 165 µg/mL (≈ 378 µM)

test system: Aspergillus niger; assay: Antifungal activity against Aspergillus niger MTCC 281 at 100 ug/ml after 24 hrs by disc diffusion method; type: functional; details: MTCC 281, 24 h, read-out: IZ

Compound | zone of inhibition at 100 µg/mL
CCOC(=O)c1c(-c2ccccc2)nn(-c2ccccc2)c1Cn1cnc2cc(C)ccc21 | 24 mm

molecular target: T1, Alpha amylase (Homo sapiens, UniProt P0DUB6); assay: Inhibition of alpha-amylase (unknown origin) using starch as substrate after 30 mins by spectrophotometer analysis; details: not given
T1 sequence (P0DUB6 whole entry): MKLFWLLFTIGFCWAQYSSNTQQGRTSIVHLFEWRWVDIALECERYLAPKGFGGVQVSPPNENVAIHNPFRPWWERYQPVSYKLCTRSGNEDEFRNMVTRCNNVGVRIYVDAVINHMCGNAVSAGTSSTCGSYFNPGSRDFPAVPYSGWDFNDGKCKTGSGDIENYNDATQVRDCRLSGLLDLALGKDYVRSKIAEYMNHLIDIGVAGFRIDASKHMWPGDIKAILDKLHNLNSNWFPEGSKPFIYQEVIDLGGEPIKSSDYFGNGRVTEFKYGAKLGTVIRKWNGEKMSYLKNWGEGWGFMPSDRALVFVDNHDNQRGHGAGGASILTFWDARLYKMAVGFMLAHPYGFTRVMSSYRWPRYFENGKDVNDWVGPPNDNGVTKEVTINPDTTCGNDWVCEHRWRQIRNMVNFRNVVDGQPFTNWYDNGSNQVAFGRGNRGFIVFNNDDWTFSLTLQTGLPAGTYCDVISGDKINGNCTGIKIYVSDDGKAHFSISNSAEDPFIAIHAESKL

IC50 | Compound
45 µg/mL (≈ 103 µM) | CCOC(=O)c1c(-c2ccccc2)nn(-c2ccccc2)c1Cn1cnc2cc(C)ccc21

molecular target: not listed separately; assay: Inhibition of alpha-glucosidase (unknown origin) using p-nitrophenol glycoside as substrate after 30 mins by colorimetric analysis; set-up: species or system Homo sapiens; details: not given

IC50 | Compound
45 µg/mL (≈ 103 µM) | CCOC(=O)c1c(-c2ccccc2)nn(-c2ccccc2)c1Cn1cnc2cc(C)ccc21
